Test results from patent US6737383B1, “Herbicidal oxadiazolidines” (priority 1999, dated 2004).

What was measured:
[1] = system: bedstraw; experiment: Test B pre/postemergence bedstraw; assay type: in vivo, Galium aparine
In short: (§1)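 Herbicidal effect was estimated by eye on a ten-point control scale after plants spent twelve to sixteen days in a greenhouse following soil or foliar treatment. Foliar sprays targeted plants at one to four leaves; all doses were formulated in a non-phytotoxic solvent with surfactant.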

[2] = system: blackgrass; experiment: Test B pre/postemergence blackgrass; assay type: in vivo, Alopecurus myosuroides
In short: as §1

[3] = system: surinam grass; experiment: Test B pre/postemergence surinam grass; assay type: in vivo, Brachiaria decumbens
In short: as §1

[4] = system: cocklebur; experiment: Test B pre/postemergence cocklebur; assay type: in vivo, Xanthium strumarium
In short: as §1

[5] = system: corn; experiment: Test B pre/postemergence corn; assay type: in vivo, Zea mays
In short: as §1

[6] = system: giant foxtail; experiment: Test B pre/postemergence giant foxtail; assay type: in vivo, Setaria faberii
In short: as §1

[7] = system: morningglory; experiment: Test B pre/postemergence morningglory; assay type: in vivo, Ipomoea hederacea
In short: as §1

[8] = system: pigweed; experiment: Test B pre/postemergence pigweed; assay type: in vivo, Amaranthus retroflexus
In short: as §1

[9] = system: rape; experiment: Test B pre/postemergence rape; assay type: in vivo, Brassica napus
In short: as §1

[10] = system: soybean; experiment: Test B pre/postemergence soybean; assay type: in vivo, Glycine max
In short: as §1

[11] = system: sugar beet; experiment: Test B pre/postemergence sugar beet; assay type: in vivo, Beta vulgaris
In short: as §1

[12] = system: velvetleaf; experiment: Test B pre/postemergence velvetleaf; assay type: in vivo, Abutilon theophrasti
In short: as §1

[13] = system: wheat; experiment: Test B pre/postemergence wheat; assay type: in vivo, Triticum aestivum
In short: as §1

[14] = system: wild oat; experiment: Test B pre/postemergence wild oat; assay type: in vivo, Avena fatua
In short: as §1

[15] = system: rice; experiment: Test B flood test rice; assay type: in vivo, Oryza sativa
In short: (§2)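 Flood test on plants grown to the 2-leaf stage; treated plants kept in greenhouse twelve to sixteen days, then visually rated against controls on a 0 (no effect) to 10 (complete control) scale.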

[16] = system: smallflower flatsedge; experiment: Test B flood test smallflower flatsedge; assay type: in vivo, Cyperus difformis
In short: as §2

[17] = Postemergence, Rate 250 g/ha, scale 0 to 10, 0 no effect, 10 complete control
[18] = Preemergence, Rate 125 g/ha, scale 0 to 10 (0 no effect, 10 complete control)
[19] = Preemergence, Rate 250 g/ha, scale of 0 to 10 where 0 is no effect and 10 is complete control
[20] = Preemergence, Rate 500 g/ha, scale 0 (no effect) to 10 (complete control)
[21] = Rate 125 g/ha, Postemergence, scale 0 to 10, 0 no effect, 10 complete control
[22] = Rate 500 g/ha, Postemergence, 0 to 10 scale (0 no effect, 10 complete control)
[23] = Rate 1000 g/ha, Preemergence, scale 0 to 10 (0 no effect, 10 complete control)
[24] = Postemergence, Rate 1000 g/ha, scale 0 to 10 (0 no effect, 10 complete control)
[25] = Rate 125 g/ha, Postemergence section (flood test species), scale 0 to 10, 0 no effect, 10 complete control
[26] = flood test, listed under Postemergence, Rate 250 g/ha, scale 0 to 10, 0 no effect, 10 complete control

SMILES: CC(C)N(C(=O)n1oc(=O)n(-c2cc(Cl)cc(Cl)c2)c1=O)C1=CCOCC1 [Compound 9]
- Bedstraw plant response rating [1, 17]: 0
- Plant response rating, Bedstraw [1, 18]: 0
- Plant response rating, Bedstraw [1, 19]: 0
- Bedstraw plant response rating [1, 20]: 0
- Bedstraw plant response rating [1, 21]: 0
- Bedstraw plant response rating [1, 22]: 0
- Plant response rating, Bedstraw [1, 23]: 0
- Blackgrass plant response rating [2, 17]: 0
- Blackgrass plant response rating [2, 24]: 3
- Plant response rating, Blackgrass [2, 18]: 0
- Plant response rating, Blackgrass [2, 19]: 0
- Blackgrass plant response rating [2, 20]: 0
- Blackgrass plant response rating [2, 21]: 0
- Blackgrass plant response rating [2, 22]: 2
- Plant response rating, Blackgrass [2, 23]: 0
- B. signalgrass plant response rating [3, 17]: 0
- B. signalgrass plant response rating [3, 24]: 0
- Plant response rating, B. signalgrass [3, 18]: 0
- Plant response rating, B. signalgrass [3, 19]: 0
- B. signalgrass plant response rating [3, 20]: 0
- B. signalgrass plant response rating [3, 21]: 0
- B. signalgrass plant response rating [3, 22]: 0
- Plant response rating, B. signalgrass [3, 23]: 0
- Cocklebur plant response rating [4, 17]: 0
- Cocklebur plant response rating [4, 24]: 4
- Plant response rating, Cocklebur [4, 18]: 0
- Plant response rating, Cocklebur [4, 19]: 0
- Cocklebur plant response rating [4, 20]: 0
- Cocklebur plant response rating [4, 21]: 0
- Cocklebur plant response rating [4, 22]: 0
- Plant response rating, Cocklebur [4, 23]: 0
- Corn plant response rating [5, 17]: 0
- Corn plant response rating [5, 24]: 0
- Plant response rating, Corn [5, 18]: 0
- Plant response rating, Corn [5, 19]: 0
- Corn plant response rating [5, 20]: 0
- Corn plant response rating [5, 21]: 0
- Corn plant response rating [5, 22]: 0
- Plant response rating, Corn [5, 23]: 3
- Giant foxtail plant response rating [6, 17]: 0
- Giant foxtail plant response rating [6, 24]: 0
- Plant response rating, Giant foxtail [6, 18]: 0
- Plant response rating, Giant foxtail [6, 19]: 0
- Giant foxtail plant response rating [6, 20]: 3
- Giant foxtail plant response rating [6, 21]: 0
- Giant foxtail plant response rating [6, 22]: 0
- Plant response rating, Giant foxtail [6, 23]: 7
- Morningglory plant response rating [7, 17]: 0
- Morningglory plant response rating [7, 24]: 2
- Plant response rating, Morningglory [7, 18]: 0
- Plant response rating, Morningglory [7, 19]: 0
- Morningglory plant response rating [7, 20]: 0
- Morningglory plant response rating [7, 21]: 0
- Morningglory plant response rating [7, 22]: 0
- Plant response rating, Morningglory [7, 23]: 0
- Redroot pigweed plant response rating [8, 17]: 0
- Redroot pigweed plant response rating [8, 24]: 3
- Plant response rating, Redroot pigweed [8, 18]: 0
- Plant response rating, Redroot pigweed [8, 19]: 0
- Redroot pigweed plant response rating [8, 20]: 0
- Redroot pigweed plant response rating [8, 21]: 0
- Redroot pigweed plant response rating [8, 22]: 3
- Plant response rating, Redroot pigweed [8, 23]: 0
- Rape plant response rating [9, 17]: 0
- Rape plant response rating [9, 24]: 0
- Plant response rating, Rape [9, 18]: 0
- Plant response rating, Rape [9, 19]: 0
- Rape plant response rating [9, 20]: 0
- Rape plant response rating [9, 21]: 0
- Rape plant response rating [9, 22]: 0
- Plant response rating, Rape [9, 23]: 0
- Soybean plant response rating [10, 17]: 0
- Soybean plant response rating [10, 24]: 1
- Plant response rating, Soybean [10, 18]: 0
- Plant response rating, Soybean [10, 19]: 0
- Soybean plant response rating [10, 20]: 0
- Soybean plant response rating [10, 21]: 0
- Plant response rating, Soybean [10, 23]: 0
- Sugarbeets plant response rating [11, 17]: 0
- Sugarbeets plant response rating [11, 24]: 0
- Plant response rating, Sugarbeets [11, 18]: 0
- Plant response rating, Sugarbeets [11, 19]: 0
- Sugarbeets plant response rating [11, 20]: 0
- Sugarbeets plant response rating [11, 21]: 0
- Plant response rating, Sugarbeets [11, 23]: 0
- Velvetleaf plant response rating [12, 17]: 0
- Velvetleaf plant response rating [12, 24]: 0
- Plant response rating, Velvetleaf [12, 18]: 0
- Plant response rating, Velvetleaf [12, 19]: 0
- Velvetleaf plant response rating [12, 20]: 0
- Velvetleaf plant response rating [12, 21]: 0
- Plant response rating, Velvetleaf [12, 23]: 0
- Wheat plant response rating [13, 17]: 0
- Wheat plant response rating [13, 24]: 0
- Plant response rating, Wheat [13, 18]: 0
- Plant response rating, Wheat [13, 19]: 0
- Wheat plant response rating [13, 20]: 0
- Wheat plant response rating [13, 21]: 0
- Plant response rating, Wheat [13, 23]: 0
- Wild oats plant response rating [14, 17]: 0
- Wild oats plant response rating [14, 24]: 0
- Plant response rating, Wild oats [14, 18]: 0
- Plant response rating, Wild oats [14, 19]: 0
- Wild oats plant response rating [14, 20]: 0
- Wild oats plant response rating [14, 21]: 0
- Plant response rating, Wild oats [14, 23]: 0
- Rice plant response rating [15, 24]: 0
- Rice plant response rating [15, 25]: 0
- Rice plant response rating ([15]; Rate 500 g/ha, Postemergence section of Table B, 0 to 10 scale (0 no effect, 10 complete control)): 0
- Rice plant response rating [15, 26]: 0
- S. Flatsedge plant response rating [16, 24]: 0
- S. Flatsedge plant response rating [16, 25]: 0
- S. Flatsedge plant response rating [16, 26]: 0
